One series concerns the target T1, SpSLC9C1 (Strongylocentrotus purpuratus, UniProt A3RL54).
T1 construct: gene SLC9C1; ITC and nanoDSF: isolated CTD (S946–E1193: helix E', CNBD and β-CTD); cryo-EM: full-length SpSLC9C1 in lipid nanodiscs
T1 sequence (A3RL54 946-1193): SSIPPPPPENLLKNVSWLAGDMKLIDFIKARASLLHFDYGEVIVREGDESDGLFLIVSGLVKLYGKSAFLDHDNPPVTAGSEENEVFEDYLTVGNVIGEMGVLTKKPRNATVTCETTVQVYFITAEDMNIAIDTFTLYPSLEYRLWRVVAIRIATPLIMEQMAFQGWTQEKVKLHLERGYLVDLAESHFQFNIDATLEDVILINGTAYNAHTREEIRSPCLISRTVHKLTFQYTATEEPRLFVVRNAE
In words: ITC (isolated CTD), nanoDSF ([…] °C shift), cryo-EM structure. In kind it is binding. Background: DSF heats the sample and reads unfolding from a dye or from intrinsic fluorescence.

Series [1] deals with the molecule itself. As to the kind of experiment: cryo-EM structure; ligand-free SpSLC9C1 in MSP 2N2 / soy polar lipid nanodiscs, pH 7.6, 150 mM Na+ (20 mM HEPES pH 7.6, 150 mM NaCl); C2 symmetry imposed on the final dimer map.

By Kd is commonly meant the equilibrium constant for the complex coming apart. As usually defined, the stoichiometry N is a count of units in the complex or per binding partner.

On to `Nc1nc2c(ncn2[C@@H]2O[C@@H]3COP(=O)(O)O[C@H]3[C@H]2O)c(=O)[nH]1` [cGMP], for which the equilibrium dissociation constant (Kd) on SpSLC9C1 amounted to 9.3 µM.

B1: SpSLC9C1 (sperm-specific Na+/H+ exchanger SLC9C1 from the sea urchin Strongylocentrotus purpuratus) (natural protein, UniProt A3RL54 30-1325, looked up)
chain: SSGGSGHTPTTQATHADDHDLTTHNGTEEHDDGHDDGHDDLHAHAPKVIVFISGSCLFGAISRSLFKKLPIPYTVVLLILGAILGVVASNVPLVEEHTRDVAHMDPHVLLQIFLPVLIFESAFAMDVHTFMRSFSQVCILALFGLVVASVLTAVLAMNLFNYNWNFSEAMMFGAIMSATDPVAVVALLKDLGASKQLGTIIEGESLLNDGCAIVIFNVFMKMVFFPQLTSTVGQNVLYFLQVAVAGPLWGYAVAKVTVFFLSHIFNDALVEITITLAATYLTYYIGDIWLEVSGVLAVVVLGLIVNAEKTSISPEVEVFLHRFWEMLAYLANTLIFMMVGVVVTQKALVAVDKMDWFYLIILYLAITIIRGMVISLFSPILSRIGYGLTWRNAVIMTWGGLRGAVGLALALVVENLAGNDVIGSKFLFHTAGIVVLTLVINATTIQTLLRILGMSDISIPKRLAMAGAVRRIHEGQNRTLNMLKSDRFLADADWDIATAACEISDPYSALSDDENAPADELTLGERKSVCPGCKAMVPNEPSPREFADMMEEARLRMLKAEKISYWKQFEHGMLAREALRLLVQHAEVAADEKDQFILVDDLKKSWQIKGIYPWLKRKLEDLISEKKIAAIPMPKYKLGKLMYKICHHMAFEVTINIAIVLNIVPIIMEFVVQDKMASVSTMAAPGSTVSSEPSSLQKIEDALRISNYVFFVIYAIEAIVKILGLGRHYIVSHWNKFDAFILVVALVDIIIAETLLKGSITINLSSIKVVKLFRLLRGLRMLRLTKALIPKLILVVNGKINNQLSLGYDVGKGYIIGEEEVGKIIDRMVDNKKILRELKHISETGRLQVVKELGLLQREHPGIAVSVKTRQAIRTILNHSRETIHELQGAGLLDEMEAHKLELTVEIKMKRLMNAPSSIPPPPPENLLKNVSWLAGDMKLIDFIKARASLLHFDYGEVIVREGDESDGLFLIVSGLVKLYGKSAFLDHDNPPVTAGSEENEVFEDYLTVGNVIGEMGVLTKKPRNATVTCETTVQVYFITAEDMNIAIDTFTLYPSLEYRLWRVVAIRIATPLIMEQMAFQGWTQEKVKLHLERGYLVDLAESHFQFNIDATLEDVILINGTAYNAHTREEIRSPCLISRTVHKLTFQYTATEEPRLFVVRNAEYNGPILDGRLDVDSKRSLISITEISSNMCLKHAAELRQKNSKVMLSRKSSGAAAKEEEDCIPNTSDVEQAAGVSPSVPTKTTPKPKSFLPSLGLSMSKERVNGEAVEESPVKTKQGEETPETEEGAAPRVNV
notes: SpSLC9C1, Strongylocentrotus purpuratus, UniProt A3RL54, gene codon-optimized for mammalian cells; full-length protein; the first 70 N-terminal residues are not resolved in the maps; C-terminal HRV-3C cleavage site followed by Venus, myc and SBP tags; the tags were cleaved off with HRV-3C, so residues of the cleavage site may remain at the C-terminus; Homodimer by cryo-EM; also called full-length …
Consider B1, for which the “stoichiometry N” value in series [1] was found to be 2.

Source of the values: paper PMC10620091 (Nature, 2023).
